Reference: patent publication US8440658B2, “Cyclic urea inhibitors of 11β-hydroxysteroid dehydrogenase 1” (Vitae Pharmaceuticals, Inc., priority 2007, dated 2013)
pIC50: −log10 of the molar value.

Target: T1, human 11β-HSD1 (Homo sapiens, UniProt P28845)
T1 construct: expressed in transfected cells; host or cells: CHO cells (microsomes)
Assay: Inhibition of microsomal preparation of 11β-HSD1 (SPA, [3H]cortisone to [3H]cortisol)
Type: biochemical
Settings: for Average % inhibition at 100 nM / inhibition at 0.1 µM: compound at 100 nM; for pIC50: microsomes from CHO cells overexpressing human 11β-HSD1, 160 nM [3H]cortisone, read-out: Biological Test Example 1 (IC50 class)
Description: The inhibition of microsomal preparation of 11β-HSD1 by compounds of the invention was measured essentially as previously described (K. Solly, S. S. Mundt, H. J. Zokian, G. J. Ding, A. Hermanowski-Vosatka, B. Strulovici, and W. Zheng, High-Throughput Screening of 11-Beta-Hydroxysteroid Dehydrogenase Type 1 in Scintillation Proximity Assay Format. Assay Drug Dev Technol 3 (2005) 377-384). All reactions were carried out at room temperature in 96 well clear flexible PET Microbeta plates (PerkinElmer). The assay begins by dispensing 49 μl of substrate solution (50 mM HEPES, pH 7.4, 100 mM KCl, 5 mM NaCl, 2 mM MgCl2, 2 mM NADPH and 160 nM [^3H]cortisone (1 Ci/mmol)) and mixing in 1 μL of the test compounds in DMSO previously diluted in half-log increments (8 points) starting at 0.1 mM. After a 10 minute pre-incubation, 50 μL of enzyme solution containing microsomes isolated from CHO cells overexpressing human 11β-HSD1 (10-20 μg/ml of total protein) was added, and the plates were incubated for 90 minutes at room temperature. The reaction was stopped by adding 50 μl of the SPA beads suspension containing 10 μM 18β-glycyrrhetinic acid, 5 mg/ml protein A coated YSi SPA beads (GE Healthcare) and 3.3 μg/ml of anti-cortisol antibody (East Coast Biologics) in Superblock buffer (Bio-Rad). The plates were shaken for 120 minutes at room temperature, and the SPA signal corresponding to [^3H]cortisol was measured on a Microbeta plate reader.

T1 sequence (P28845 whole entry): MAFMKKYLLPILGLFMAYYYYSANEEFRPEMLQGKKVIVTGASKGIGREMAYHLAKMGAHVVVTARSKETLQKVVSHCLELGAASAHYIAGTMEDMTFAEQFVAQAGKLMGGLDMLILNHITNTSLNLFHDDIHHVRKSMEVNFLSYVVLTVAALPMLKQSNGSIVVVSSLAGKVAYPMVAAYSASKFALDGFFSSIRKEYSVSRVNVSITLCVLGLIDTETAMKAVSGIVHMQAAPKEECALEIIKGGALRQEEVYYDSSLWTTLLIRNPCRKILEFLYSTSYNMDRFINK

SMILES	Average % inhibition at 100 nM (0.1 µM) [%]	pIC50	Average % inhibition at 100 nM [%]	inhibition at 0.1 µM [%]
C[C@H](N1CCC(CCCO)(c2ccccc2)OC1=O)C(C)(C)O (single isomer, unassigned) [EXAMPLE 10 Isomer 2]	13.4	< 7.00		
CC(C)(C)N1CCC(CCCO)(c2ccccc2)OC1=O (single isomer, unassigned) [EXAMPLE 8 Isomer 2, 3-tert-butyl-6-(3-hydroxypropyl)-6-phenyl-1,3-oxazinan-2-one]	22.1	< 7.00		
CC(C)(C)N1CCC(CCCO)(c2ccc(F)cc2)OC1=O (single isomer, unassigned) [EXAMPLE 9 Isomer 2, 3-tert-butyl-6-(4-fluorophenyl)-6-(3-hydroxypropyl)-1,3-oxazinan-2-one]	25.45	< 7.00		
C[C@H](N1CCC(CCCO)(c2ccccc2)OC1=O)C(C)(C)O (single isomer, unassigned) [EXAMPLE 10 Isomer 1]	66.8	> 7.00		
C=CCC1(c2ccccc2)CCN([C@@H](C)C(C)(C)O)C(=O)O1 (single isomer, unassigned) [EXAMPLE 12 Isomer 2]	53.9	> 7.00		
C[C@H](N1CC[C@@](CCCO)(c2ccccc2)OC1=O)C(C)(C)C [EXAMPLE 3 Isomer 2, (S)-3-((S)-3,3-dimethylbutan-2-yl)-6-(3-hydroxypropyl)-6-phenyl-1,3-oxazinan-2-one]		> 7.00		58.8
CC(C)(C)N1CCC(CCCO)(c2ccc(F)cc2)OC1=O (single isomer, unassigned) [EXAMPLE 9 Isomer 1, 3-tert-butyl-6-(4-fluorophenyl)-6-(3-hydroxypropyl)-1,3-oxazinan-2-one]	74.7	> 7.00		
CC(C)(C)N1CCC(CCCO)(c2ccccc2)OC1=O (single isomer, unassigned) [EXAMPLE 8 Isomer 1, 3-tert-butyl-6-(3-hydroxypropyl)-6-phenyl-1,3-oxazinan-2-one]	84.0	> 7.00		
C[C@H](N1CC[C@](CCCO)(c2ccccc2)OC1=O)C(C)(C)C [EXAMPLE 3 Isomer 1]		> 7.00		94
C[C@H](N1CC[C@](CCCO)(c2ccc(F)cc2)NC1=O)C(C)(C)C [EXAMPLE 11, (R)-1-((S)-3,3-dimethylbutan-2-yl)-4-(4-fluorophenyl)-4-(3-hydroxypropyl)tetrahydropyrimidin-2(1H)-one]		> 7.00		97
C=CCC1(c2ccccc2)CCN([C@@H](C)C(C)(C)O)C(=O)O1 (single isomer, unassigned) [EXAMPLE 12 Isomer 1]		< 7.00		47.2

Continued, values first:

Average % inhibition at 100 nM (0.1 µM) [%]	pIC50	Average % inhibition at 100 nM [%]	inhibition at 0.1 µM [%]	SMILES
	> 7.00	36.5		C[C@H](N1CC[C@@](CCO)(c2ccc(F)cc2)OC1=O)C(C)(C)C (single isomer, unassigned; isomer 2) [EXAMPLE 1 Isomer 2]
	> 7.00		91	C[C@H](N1CC[C@](CCNS(C)(=O)=O)(c2ccc(F)cc2)OC1=O)C(C)(C)C [EXAMPLE 5, N-(2-((S)-3-((S)-3,3-dimethylbutan-2-yl)-6-(4-fluorophenyl)-2-oxo-1,3-oxazinan-6-yl)ethyl)methanesulfonamide]
	> 7.00		91.8	C[C@H](N1CC[C@](CCC(N)=O)(c2ccc(F)cc2)OC1=O)C(C)(C)C [EXAMPLE 4, 3-((R)-3-((S)-3,3-dimethylbutan-2-yl)-6-(4-fluorophenyl)-2-oxo-1,3-oxazinan-6-yl)propanamide]
	> 7.00		95.9	C[C@H](N1CC[C@](CCCNS(C)(=O)=O)(c2ccc(F)cc2)OC1=O)C(C)(C)C [EXAMPLE 6, N-(3-((R)-3-((S)-3,3-dimethylbutan-2-yl)-6-(4-fluorophenyl)-2-oxo-1,3-oxazinan-6-yl)propyl)methanesulfonamide]
	> 7.00		93.3	C[C@H](N1CC[C@](CCO)(c2ccc(F)cc2)NC1=O)C(C)(C)C [EXAMPLE 7, (S)-1-((S)-3,3-dimethylbutan-2-yl)-4-(4-fluorophenyl)-4-(2-hydroxyethyl)tetrahydropyrimidin-2(1H)-one]
	> 7.00	94.4		C[C@H](N1CC[C@](CCO)(c2ccc(F)cc2)OC1=O)C(C)(C)C (single isomer, unassigned; isomer 1) [EXAMPLE 1 Isomer 1]
	> 7.00		98.6	C[C@H](N1CC[C@](CCCO)(c2ccc(F)cc2)OC1=O)C(C)(C)C [EXAMPLE 2]
